Patent US6737383B1, “Herbicidal oxadiazolidines” (priority 1999, dated 2004)

Columns and labels:
purple nutsedge = assay: Test B pre/postemergence purple nutsedge; format: in vivo, Cyperus rotundus
Method in brief: (§1)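 Response is a visual 0-to-10 score relative to untreated plants, where 0 means no effect and 10 means complete control, taken twelve to sixteen days after application. Treatments went onto soil at planting and onto foliage of 1- to 4-leaf plants, using a surfactant-containing non-phytotoxic solvent.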

blackgrass = assay: Test B pre/postemergence blackgrass; format: in vivo, Alopecurus myosuroides
Method in brief: as §1

pigweed = assay: Test B pre/postemergence pigweed; format: in vivo, Amaranthus retroflexus
Method in brief: as §1

smallflower flatsedge = assay: Test B flood test smallflower flatsedge; format: in vivo, Cyperus difformis
Method in brief: (§2)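 Read-out is a visual response score from 0 (no effect) to 10 (complete control), assigned by comparison with untreated controls. Treatment was applied at the 2-leaf stage, and plants stayed in the greenhouse for twelve to sixteen days before scoring.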

rice = assay: Test B flood test rice; format: in vivo, Oryza sativa
Method in brief: as §2

morningglory = assay: Test B pre/postemergence morningglory; format: in vivo, Ipomoea hederacea
Method in brief: as §1

soybean = assay: Test B pre/postemergence soybean; format: in vivo, Glycine max
Method in brief: as §1

bamyardgrass = assay: Test B flood test barnyardgrass; format: in vivo, Echinochloa crus-galli
Method in brief: as §2

velvetleaf = assay: Test B pre/postemergence velvetleaf; format: in vivo, Abutilon theophrasti
Method in brief: as §1

wheat = assay: Test B pre/postemergence wheat; format: in vivo, Triticum aestivum
Method in brief: as §1

surinam grass = assay: Test B pre/postemergence surinam grass; format: in vivo, Brachiaria decumbens
Method in brief: as §1

cocklebur = assay: Test B pre/postemergence cocklebur; format: in vivo, Xanthium strumarium
Method in brief: as §1

giant foxtail = assay: Test B pre/postemergence giant foxtail; format: in vivo, Setaria faberii
Method in brief: as §1

wild oat = assay: Test B pre/postemergence wild oat; format: in vivo, Avena fatua
Method in brief: as §1

crabgrass = assay: Test B pre/postemergence crabgrass; format: in vivo, Digitaria sanguinalis
Method in brief: as §1

[1] = Postemergence, Rate 62 g/ha, scale 0 to 10, 0 is no effect, 10 is complete control
[2] = Postemergence, Rate 125 g/ha, scale of 0 to 10 where 0 is no effect and 10 is complete control
[3] = Postemergence, Rate 250 g/ha, scale of 0 to 10, 0 is no effect, 10 is complete control
[4] = Preemergence, Rate 62 g/ha, scale of 0 to 10 where 0 is no effect and 10 is complete control
[5] = Preemergence, Rate 125 g/ha, scale of 0 to 10 where 0 is no effect and 10 is complete control
[6] = Preemergence, Rate 500 g/ha, scale of 0 to 10 where 0 is no effect and 10 is complete control
[7] = Postemergence, Rate 500 g/ha, scale of 0 to 10 where 0 is no effect and 10 is complete control
[8] = Preemergence, Rate 250 g/ha, scale 0 to 10 (0 no effect, 10 complete control)
[9] = Rate 62 g/ha, flood test species, Pre-emergence, visual evaluation after twelve to sixteen days
[10] = Rate 125 g/ha, under heading Pre-emergence, flood test species, visual evaluation after twelve to sixteen days
[11] = Rate 250 g/ha, Pre-emergence (flood test species), scale 0 to 10, 0 is no effect, 10 is complete control
[12] = Rate 500 g/ha, Pre-emergence section of Table B, 0 to 10 scale (0 no effect, 10 complete control)

In the case of `CC(C)N(C(=O)n1oc(=O)n(CC(=O)C2CCC2)c1=O)c1ccc(F)cc1` [Compound 640], the “Plant response rating, Nutsedge” value (purple nutsedge; [1]) was 0, the “Plant response rating, Nutsedge” value (purple nutsedge; [2]) was 0 and the “Nutsedge plant response rating” value (purple nutsedge; [3]) was 0. The “Nutsedge plant response rating” value (purple nutsedge; [4]) was 0, the “Nutsedge plant response rating” value (purple nutsedge; [5]) was 0 and the “Plant response rating, Nutsedge” value (purple nutsedge; [6]) was 0. For the same compound, the “Plant response rating, Blackgrass” value (blackgrass; [1]) was 0, the “Plant response rating, Blackgrass” value (blackgrass; [2]) was 4 and the “Plant response rating, Blackgrass” value (blackgrass; [7]) was 5. For the same compound, the “Blackgrass plant response rating” value (blackgrass; [4]) was 0, the “Blackgrass plant response rating” value (blackgrass; [5]) was 0 and the “Plant response rating, Blackgrass” value (blackgrass; [8]) was 0. The “Plant response rating, Blackgrass” value (blackgrass; [6]) was 8, the “Plant response rating, Redroot pigweed” value (pigweed; [1]) was 0 and the “Plant response rating, Redroot pigweed” value (pigweed; [2]) was 0. The “Redroot pigweed plant response rating” value (pigweed; [3]) was 4, the “Redroot pigweed plant response rating” value (pigweed; [4]) was 0 and the “Redroot pigweed plant response rating” value (pigweed; [5]) was 0. For the same compound, the “Plant response rating, Redroot pigweed” value (pigweed; [8]) was 2, the “Plant response rating, Redroot pigweed” value (pigweed; [6]) was 7 and the “Plant response rating, S. Flatsedge (0 to 10 scale, 0 is no effect, 10 is complete control)” value (smallflower flatsedge; [9]) was 0. For the same compound, the “S. Flatsedge plant response rating (0 to 10 scale, 0 is no effect, 10 is complete control)” value (smallflower flatsedge; [10]) was 0, the “S. Flatsedge plant response rating” value (smallflower flatsedge; [11]) was 0 and the “S. Flatsedge plant response rating” value (smallflower flatsedge; [12]) was 0. The “Plant response rating, Rice (0 to 10 scale, 0 is no effect, 10 is complete control)” value (rice; [9]) was 0, the “Rice plant response rating (0 to 10 scale, 0 is no effect, 10 is complete control)” value (rice; [10]) was 0 and the “Rice plant response rating” value (rice; [11]) was 0. For the same compound, the “Rice plant response rating” value (rice; [12]) was 0, the “Plant response rating, Morningglory” value (morningglory; [1]) was 0 and the “Plant response rating, Morningglory” value (morningglory; [2]) was 3. The “Morningglory plant response rating” value (morningglory; [3]) was 6, the “Plant response rating, Morningglory” value (morningglory; [7]) was 6 and the “Morningglory plant response rating” value (morningglory; [4]) was 0. For the same compound, the “Morningglory plant response rating” value (morningglory; [5]) was 0, the “Plant response rating, Morningglory” value (morningglory; [8]) was 0 and the “Plant response rating, Morningglory” value (morningglory; [6]) was 0. The “Plant response rating, Soybean” value (soybean; [1]) was 0, the “Plant response rating, Soybean” value (soybean; [2]) was 0 and the “Soybean plant response rating” value (soybean; [3]) was 0. For the same compound, the “Soybean plant response rating” value (soybean; [4]) was 0, the “Soybean plant response rating” value (soybean; [5]) was 0 and the “Plant response rating, Soybean” value (soybean; [8]) was 0. For the same compound, the “Plant response rating, Soybean” value (soybean; [6]) was 0, the “Plant response rating, Barnyardgrass (0 to 10 scale, 0 is no effect, 10 is complete control)” value (bamyardgrass; [9]) was 0 and the “Barnyardgrass plant response rating (0 to 10 scale, 0 is no effect, 10 is complete control)” value (bamyardgrass; [10]) was 0. The “Barnyardgrass plant response rating” value (bamyardgrass; [11]) was 0, the “Barnyardgrass plant response rating” value (bamyardgrass; [12]) was 0 and the “Plant response rating, Velvetleaf” value (velvetleaf; [1]) was 0. For the same compound, the “Plant response rating, Velvetleaf” value (velvetleaf; [2]) was 3, the “Velvetleaf plant response rating” value (velvetleaf; [3]) was 3 and the “Velvetleaf plant response rating” value (velvetleaf; [4]) was 0. For the same compound, the “Velvetleaf plant response rating” value (velvetleaf; [5]) was 0, the “Plant response rating, Velvetleaf” value (velvetleaf; [8]) was 0 and the “Plant response rating, Velvetleaf” value (velvetleaf; [6]) was 0. The “Plant response rating, Wheat” value (wheat; [1]) was 0, the “Plant response rating, Wheat” value (wheat; [2]) was 0 and the “Wheat plant response rating” value (wheat; [3]) was 0. For the same compound, the “Wheat plant response rating” value (wheat; [4]) was 0, the “Wheat plant response rating” value (wheat; [5]) was 0 and the “Plant response rating, Wheat” value (wheat; [8]) was 0. The “Plant response rating, Wheat” value (wheat; [6]) was 2, the “Plant response rating, B. signalgrass” value (surinam grass; [1]) was 0 and the “Plant response rating, B. signalgrass” value (surinam grass; [2]) was 0. For the same compound, the “B. signalgrass plant response rating” value (surinam grass; [3]) was 0, the “Plant response rating, B. signalgrass” value (surinam grass; [7]) was 4 and the “B. signalgrass plant response rating” value (surinam grass; [4]) was 0. For the same compound, the “B. signalgrass plant response rating” value (surinam grass; [5]) was 2, the “Plant response rating, B. signalgrass” value (surinam grass; [8]) was 4 and the “Plant response rating, B. signalgrass” value (surinam grass; [6]) was 9. The “Plant response rating, Cocklebur” value (cocklebur; [1]) was 0, the “Plant response rating, Cocklebur” value (cocklebur; [2]) was 0 and the “Cocklebur plant response rating” value (cocklebur; [3]) was 2. The “Plant response rating, Cocklebur” value (cocklebur; [7]) was 5, the “Cocklebur plant response rating” value (cocklebur; [4]) was 0 and the “Cocklebur plant response rating” value (cocklebur; [5]) was 0. For the same compound, the “Plant response rating, Cocklebur” value (cocklebur; [8]) was 0, the “Plant response rating, Cocklebur” value (cocklebur; [6]) was 0 and the “Plant response rating, Giant foxtail” value (giant foxtail; [1]) was 0. For the same compound, the “Plant response rating, Giant foxtail” value (giant foxtail; [2]) was 0, the “Giant foxtail plant response rating” value (giant foxtail; [3]) was 0 and the “Plant response rating, Giant foxtail” value (giant foxtail; [7]) was 4. The “Giant foxtail plant response rating” value (giant foxtail; [4]) was 9, the “Giant foxtail plant response rating” value (giant foxtail; [5]) was 9 and the “Plant response rating, Giant foxtail” value (giant foxtail; [8]) was 10. For the same compound, the “Plant response rating, Giant foxtail” value (giant foxtail; [6]) was 9, the “Plant response rating, Wild oats” value (wild oat; [1]) was 0 and the “Plant response rating, Wild oats” value (wild oat; [2]) was 0. For the same compound, the “Wild oats plant response rating” value (wild oat; [3]) was 0, the “Wild oats plant response rating” value (wild oat; [4]) was 0 and the “Wild oats plant response rating” value (wild oat; [5]) was 0. The “Plant response rating, Wild oats” value (wild oat; [8]) was 3, the “Plant response rating, Wild oats” value (wild oat; [6]) was 6 and the “Plant response rating, Crabgrass” value (crabgrass; [1]) was 0. For the same compound, the “Plant response rating, Crabgrass” value (crabgrass; [2]) was 2, the “Crabgrass plant response rating” value (crabgrass; [3]) was 3 and the “Plant response rating, Crabgrass” value (crabgrass; [7]) was 6. For the same compound, the “Crabgrass plant response rating” value (crabgrass; [4]) was 3, the “Crabgrass plant response rating” value (crabgrass; [5]) was 3 and the “Plant response rating, Crabgrass” value (crabgrass; [8]) was 9. The “Plant response rating, Crabgrass” value (crabgrass; [6]) was 10.
